BindingDB's records for doi:10.1021/acs.jmedchem.5b01840 (Norgine, 2016)

Experiment: Antagonist activity at CCR9 receptor in human MOLT4 cells assessed as inhibition of CCl25-mediated cell migration preincubated for 30 mins followed CCL25 addition incubated for 2 hrs by ChemoTx plate system

Row | Ki [nM] | Compound
1 | 357 | CC(C)(C)c1ccc(S(=O)(=O)Nc2ccc(Cl)c3c2C(=O)N(Cc2cccnc2)C3=O)cc1 [US9969687, Compound 64]
2 | 38 | CC(C)(C)c1ccc(S(=O)(=O)Nc2ccc(Cl)c3c2C(=O)N(Cc2ccc[n+]([O-])c2)C3=O)cc1 [US9969687, Compound 65]
3 | 24 | Cc1c(N2C(=O)c3c(Cl)ccc(NS(=O)(=O)c4ccc(C(C)(C)C)cc4)c3C2=O)ccc[n+]1[O-] [US9969687, Compound 176]
4 | > 100 | CC(C)(C)c1ccc(S(=O)(=O)Nc2ccc(Cl)c3c2C(=O)N(Cc2ccncc2)C3=O)cc1 [US9969687, Compound 201]

The remaining lines, values behind:

Row | Compound | Ki [nM]
5 | COc1ccncc1N1C(=O)c2c(Cl)ccc(NS(=O)(=O)c3ccc(C(C)(C)C)cc3)c2C1=O [US9969687, Compound 119] | 3
6 | Cc1ncccc1N1C(=O)c2c(Cl)ccc(NS(=O)(=O)c3ccc(C(C)(C)C)cc3)c2C1=O [US9969687, Compound 175] | 14
7 | COc1ncccc1N1C(=O)c2c(Cl)ccc(NS(=O)(=O)c3ccc(C(C)(C)C)cc3)c2C1=O [US9969687, Compound 183] | 32
8 | COc1c(N2C(=O)c3c(Cl)ccc(NS(=O)(=O)c4ccc(C(C)(C)C)cc4)c3C2=O)ccc[n+]1[O-] [US9969687, Compound 194] | 113
9 | CC(C)(C)c1ccc(S(=O)(=O)Nc2ccc(Cl)c3c2C(=O)N(Cc2cccc[n+]2[O-])C3=O)cc1 [US9969687, Compound 199] | 40
10 | CC(C)(C)c1ccc(S(=O)(=O)Nc2ccc(Cl)c3c2C(=O)N(c2cccnc2F)C3=O)cc1 [US9969687, Compound 218] | 91
11 | CC(C)(C)c1ccc(S(=O)(=O)Nc2ccc(Cl)c3c2C(=O)N(c2ccccn2)C3=O)cc1 [US9969687, Compound 222] | 9
12 | Cc1ccc(N2C(=O)c3c(Cl)ccc(NS(=O)(=O)c4ccc(C(C)(C)C)cc4)c3C2=O)c(C)n1 [US9969687, Compound 224] | > 300
13 | Cc1cccc(N2C(=O)c3c(Cl)ccc(NS(=O)(=O)c4ccc(C(C)(C)C)cc4)c3C2=O)n1 [US9969687, Compound 228] | 19
